Values joined by “and” are separate entries in the source; they are usually repeats but may differ in a detail not shown here. Identical values can stand only once. Records with an inconclusive call do not appear.
Test system: nude mice, LX-1 lung xenograft intrarenal, tumor weight T/C
Assay: NCI In Vivo Anticancer Drug Screen. Data for tumor model Human Lung LX-1 Xenograft (intrarenal inoculation) in NU/NU Swiss (nude) mice
Details: endpoint: mean tumor weight change, higher = larger tumour
How it was run: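 Compound-treated mice carrying transplanted tumors were compared with vehicle-treated controls. Tumor size was the measured end point, and the value is the treated-group measurement divided by the control-group measurement (T/C).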

[1] = dose: 150.0 mg/kg/injection, schedule: Q04DX003 (sc), vehicle: saline with Tween-80
[2] = dose: 300.0 mg/kg/injection, schedule: Q04DX003 (sc), vehicle: saline with Tween-80
[3] = dose: 600.0 mg/kg/injection, schedule: Q04DX003 (sc), vehicle: saline with Tween-80
[4] = dose: 1200.0 mg/kg/injection, schedule: Q04DX003 (sc), vehicle: saline with Tween-80
[5] = dose: 100.0 mg/kg/injection, schedule: Q04DX003 (sc), vehicle: Klucel (hydroxypropylcellulose) (HPC)
[6] = dose: 200.0 mg/kg/injection, schedule: Q01DX010 (sc), vehicle: saline
[7] = dose: 400.0 mg/kg/injection, schedule: Q01DX010 (sc), vehicle: saline
[8] = dose: 300.0 mg/kg/injection, schedule: Q04DX003 (sc), vehicle: saline
[9] = dose: 150.0 mg/kg/injection, schedule: Q04DX003 (sc), vehicle: Klucel (hydroxypropylcellulose) (HPC)
[10] = dose: 300.0 mg/kg/injection, schedule: Q04DX003 (sc), vehicle: Klucel (hydroxypropylcellulose) (HPC)
[11] = dose: 50.0 mg/kg/injection, schedule: Q01DX010 (sc), vehicle: Klucel (hydroxypropylcellulose) (HPC)
[12] = dose: 75.0 mg/kg/injection, schedule: Q04DX003 (sc), vehicle: saline
[13] = dose: 18.75 mg/kg/injection, schedule: Q04DX003 (sc), vehicle: saline

## O=[N+]([O-])/C=C\c1ccc2c(c1)OCO2
dose: 12.5 mg/kg/injection, schedule: Q01DX010 (sc), vehicle: Klucel (hydroxypropylcellulose) (HPC)
  T/C: 71 % of control
dose: 25.0 mg/kg/injection, schedule: Q01DX010 (sc), vehicle: Klucel (hydroxypropylcellulose) (HPC)
  T/C: 94 % of control
dose: 800.0 mg/kg/injection, schedule: Q01DX010 (sc), vehicle: Klucel (hydroxypropylcellulose) (HPC)
  T/C: 184 % of control

## CN(C=O)C(C(=O)Nc1cccc2c(OC(=O)C(N(C)C=O)(N(C)C=O)N(C)C=O)c(N=Nc3ccc(S(=O)(=O)Nc4nccs4)cc3)cc(N=Nc3ccc(S(=O)(=O)Nc4nccs4)cc3)c12)(N(C)C=O)N(C)C=O (tested in a mixture with another compound)
[1]
  T/C: 109 % of control
[2]
  T/C: 71 % of control
[3]
  T/C: 120 % of control
[4]
  T/C: 95 % of control

## C/C(=N\N=C(/[Se])N1CC2CCC(CC2)C1)c1ccccn1
dose: 12.5 mg/kg/injection, schedule: Q04DX003 (sc), vehicle: Klucel (hydroxypropylcellulose) (HPC)
  T/C: 100 % of control
dose: 25.0 mg/kg/injection, schedule: Q04DX003 (sc), vehicle: Klucel (hydroxypropylcellulose) (HPC)
  T/C: 79 % of control
dose: 50.0 mg/kg/injection, schedule: Q04DX003 (sc), vehicle: Klucel (hydroxypropylcellulose) (HPC)
  T/C: 85 % of control
[5]
  T/C: 253 % of control

## Cn1cnc([N+](=O)[O-])c1[Se]c1nc(N)nc2nc[nH]c12
dose: 12.5 mg/kg/injection, schedule: Q01DX010 (sc), vehicle: water
  T/C: 63 % of control
dose: 25.0 mg/kg/injection, schedule: Q01DX010 (sc), vehicle: water
  T/C: 68 % of control
dose: 50.0 mg/kg/injection, schedule: Q01DX010 (sc), vehicle: water
  T/C: 176 % of control
dose: 100.0 mg/kg/injection, schedule: Q01DX010 (sc), vehicle: water
  T/C: 68 % of control

## NCCc1ccc(O)c(O)c1
[6]
  T/C: 113 % of control
[7]
  T/C: 92 % of control
dose: 800.0 mg/kg/injection, schedule: Q01DX010 (sc), vehicle: saline
  T/C: 52 % of control

## O=C(CO)c1ccc([N+](=O)[O-])cc1
dose: 50.0 mg/kg/injection, schedule: Q01DX010 (sc), vehicle: saline with Tween-80
  T/C: 78 % of control
dose: 100.0 mg/kg/injection, schedule: Q01DX010 (sc), vehicle: saline with Tween-80
  T/C: 86 % of control
dose: 200.0 mg/kg/injection, schedule: Q01DX010 (sc), vehicle: saline with Tween-80
  T/C: 103 % of control
dose: 400.0 mg/kg/injection, schedule: Q01DX010 (sc), vehicle: saline with Tween-80
  T/C: 70 % of control

## COC(=O)C(N)Cc1ccc(O)c(O)c1 (stereo not drawn)
[8]
  T/C: 118 % of control
dose: 600.0 mg/kg/injection, schedule: Q04DX003 (sc), vehicle: saline
  T/C: 108 % of control
dose: 1200.0 mg/kg/injection, schedule: Q04DX003 (sc), vehicle: saline
  T/C: 106 % of control
dose: 2400.0 mg/kg/injection, schedule: Q04DX003 (sc), vehicle: saline
  T/C: 108 % of control

## CC(C)NC(=O)N(CCCCBr)N=O
dose: 75.0 mg/kg/injection, schedule: Q04DX003 (sc), vehicle: Klucel (hydroxypropylcellulose) (HPC)
  T/C: 95 % of control
[9]
  T/C: 52 % of control
[10]
  T/C: 44 % of control

## S=c1nc[nH]c2nc[nH]c12
dose: 6.25 mg/kg/injection, schedule: Q01DX010 (sc), vehicle: Klucel (hydroxypropylcellulose) (HPC)
  T/C: 120 % of control
[11]
  T/C: 51 % of control and 55 % of control

## O=C1CN(CN2CCOCC2)C(=O)CN1CN1CCOCC1
dose: 50.0 mg/kg/injection, schedule: Q01DX010 (sc), vehicle: suspension in saline
  T/C: 116 % of control
dose: 200.0 mg/kg/injection, schedule: Q01DX010 (sc), vehicle: suspension in saline
  T/C: 156 % of control

## Oc1ccc(CCl)c2cccnc12
[12]
  T/C: 91 % of control
dose: 150.0 mg/kg/injection, schedule: Q04DX003 (sc), vehicle: saline
  T/C: 78 % of control
[8]
  T/C: 46 % of control

## Cn1cnc([N+](=O)[O-])c1Sc1ncn[nH]1
dose: 100.0 mg/kg/injection, schedule: Q04DX003 (sc), vehicle: suspension in saline
  T/C: 96 % of control
dose: 200.0 mg/kg/injection, schedule: Q04DX003 (sc), vehicle: suspension in saline
  T/C: 96 % of control
dose: 400.0 mg/kg/injection, schedule: Q04DX003 (sc), vehicle: suspension in saline
  T/C: 32 % of control

## ClCCCN1CCN(CCCCl)CC1
dose: 150.0 mg/kg/injection, schedule: Q04DX003 (sc), vehicle: distilled water + alcohol
  T/C: 90 % of control

## CCCCCC1c2cc(O)ccc2OC1N1CCOCC1 (stereo not drawn)
[3]
  T/C: 150 % of control
[4]
  T/C: 52 % of control
dose: 2400.0 mg/kg/injection, schedule: Q04DX003 (sc), vehicle: saline with Tween-80
  T/C: 89 % of control

## CSC(SC)=C1C(=O)NC(=O)NC1=O
dose: 150.0 mg/kg/injection, schedule: Q04DX003 (sc), vehicle: suspension in saline
  T/C: 68 % of control
dose: 300.0 mg/kg/injection, schedule: Q04DX003 (sc), vehicle: suspension in saline
  T/C: 102 % of control
dose: 600.0 mg/kg/injection, schedule: Q04DX003 (sc), vehicle: suspension in saline
  T/C: 42 % of control

## COC1C(O)CC(OC2CC(OC3CC(O[C@@H]4C(=O)c5c(cc6cc(OC7CC(OC8CC(O)C(O)C(C)O8)C(O)C(C)O7)c(C)c(O)c6c5O)C[C@H]4[C@H](OC)C(=O)[C@@H](O)[C@@H](C)O)OC(C)C3O)OC(C)C2O)OC1C (stereo partly drawn)
dose: 0.18 mg/kg/injection, schedule: Q01DX010 (sc), vehicle: saline
  T/C: 62 % of control
dose: 0.37 mg/kg/injection, schedule: Q01DX010 (sc), vehicle: saline
  T/C: 32 % of control

## Cc1oc2c(C)c3oc(=O)cc(C)c3cc2c1CCl
[1]
  T/C: 82 % of control
[2]
  T/C: 95 % of control
[3]
  T/C: 60 % of control
[4]
  T/C: 76 % of control

## O=C(O)CC(NC(=O)CP(=O)(O)O)C(=O)O (stereo not drawn)
dose: 25.0 mg/kg/injection, schedule: Q01DX010 (sc), vehicle: saline
  T/C: 51 % of control
dose: 50.0 mg/kg/injection, schedule: Q01DX010 (sc), vehicle: saline
  T/C: 90 % of control
[6]
  T/C: 57 % of control
[7]
  T/C: 174 % of control

## C[C@]12CCC(=O)C(O)=C1CC[C@@H]1[C@@H]2CC[C@]2(C)C(=O)CC[C@@H]12
[11]
  T/C: 43 % of control
dose: 100.0 mg/kg/injection, schedule: Q01DX010 (sc), vehicle: Klucel (hydroxypropylcellulose) (HPC)
  T/C: 30 % of control
dose: 200.0 mg/kg/injection, schedule: Q01DX010 (sc), vehicle: Klucel (hydroxypropylcellulose) (HPC)
  T/C: 47 % of control
dose: 400.0 mg/kg/injection, schedule: Q01DX010 (sc), vehicle: Klucel (hydroxypropylcellulose) (HPC)
  T/C: 48 % of control

## O=S(=O)(O)O
[9]
  T/C: 70 % of control
[10]
  T/C: 167 % of control
dose: 600.0 mg/kg/injection, schedule: Q04DX003 (sc), vehicle: Klucel (hydroxypropylcellulose) (HPC)
  T/C: 73 % of control

## O=Cc1c(O)c2ccccc2[nH]c1=O
[1]
  T/C: 84 % of control
[2]
  T/C: 99 % of control
[3]
  T/C: 90 % of control
[4]
  T/C: 50 % of control

## N=C(N)CCCCCCCCC(=N)N
dose: 4.69 mg/kg/injection, schedule: Q04DX003 (sc), vehicle: saline
  T/C: 91 % of control
dose: 9.38 mg/kg/injection, schedule: Q04DX003 (sc), vehicle: saline
  T/C: 92 % of control
[13]
  T/C: 94 % of control

## CCCCCCCCCCCCCCC/C([O-])=N/[N+](C)(C)CC(C)O (stereo not drawn)
[5]
  T/C: 66 % of control
dose: 200.0 mg/kg/injection, schedule: Q04DX003 (sc), vehicle: Klucel (hydroxypropylcellulose) (HPC)
  T/C: 54 % of control
dose: 400.0 mg/kg/injection, schedule: Q04DX003 (sc), vehicle: Klucel (hydroxypropylcellulose) (HPC)
  T/C: 103 % of control
dose: 800.0 mg/kg/injection, schedule: Q04DX003 (sc), vehicle: Klucel (hydroxypropylcellulose) (HPC)
  T/C: 77 % of control
dose: 1200.0 mg/kg/injection, schedule: Q04DX003 (sc), vehicle: Klucel (hydroxypropylcellulose) (HPC)
  T/C: 77 % of control
dose: 2400.0 mg/kg/injection, schedule: Q04DX003 (sc), vehicle: Klucel (hydroxypropylcellulose) (HPC)
  T/C: 69 % of control

## [CH3][Sn]([CH3])([Cl])[S]CCN
[13]
  T/C: 62 % of control
dose: 37.5 mg/kg/injection, schedule: Q04DX003 (sc), vehicle: saline
  T/C: 95 % of control
[12]
  T/C: 82 % of control

## Clc1cc(Cl)c(C[N+]23CN4CN(CN(C4)C2)C3)cc1Cl
dose: 18.75 mg/kg/injection, schedule: Q04DX003 (sc), vehicle: saline with Tween-80
  T/C: 76 % of control
dose: 37.5 mg/kg/injection, schedule: Q04DX003 (sc), vehicle: saline with Tween-80
  T/C: 96 % of control
dose: 75.0 mg/kg/injection, schedule: Q04DX003 (sc), vehicle: saline with Tween-80
  T/C: 91 % of control
[1]
  T/C: 107 % of control
